Measured values reported in patent US9624214B2, “Amino-substituted imidazo[1,2-a]pyridinecarboxamides and their use” (BAYER PHARMA AKTIENGESELLSCHAFT, priority 2012, dated 2017).

target: T1, recombinant guanylate cyclase reporter cell line (Rattus norvegicus, UniProt P19686+P20595); assay: B-2. Action on recombinant guanylate cyclase reporter cell line; format: cell-based; settings: MEC = minimal effective concentration; in some cases mean values from individual determinations
T1 construct: expressed in transfected cells
T1 sequence (P20595 1-619): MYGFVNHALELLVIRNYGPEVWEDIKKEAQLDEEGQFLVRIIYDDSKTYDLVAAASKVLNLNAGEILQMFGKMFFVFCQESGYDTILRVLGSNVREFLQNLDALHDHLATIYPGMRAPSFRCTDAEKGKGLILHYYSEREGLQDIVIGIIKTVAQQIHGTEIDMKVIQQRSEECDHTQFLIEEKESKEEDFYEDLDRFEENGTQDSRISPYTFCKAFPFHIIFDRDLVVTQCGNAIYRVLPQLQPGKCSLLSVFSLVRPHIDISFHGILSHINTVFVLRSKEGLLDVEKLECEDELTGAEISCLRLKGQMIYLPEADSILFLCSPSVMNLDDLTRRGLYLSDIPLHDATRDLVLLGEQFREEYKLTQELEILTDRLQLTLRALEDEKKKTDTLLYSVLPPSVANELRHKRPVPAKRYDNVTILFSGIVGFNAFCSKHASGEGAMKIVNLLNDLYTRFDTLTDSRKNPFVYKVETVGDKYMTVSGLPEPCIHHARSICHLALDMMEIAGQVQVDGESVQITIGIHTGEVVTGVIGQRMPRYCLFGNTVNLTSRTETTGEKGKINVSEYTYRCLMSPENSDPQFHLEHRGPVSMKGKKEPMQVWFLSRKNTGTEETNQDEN
T1 sequence (P19686 1-690): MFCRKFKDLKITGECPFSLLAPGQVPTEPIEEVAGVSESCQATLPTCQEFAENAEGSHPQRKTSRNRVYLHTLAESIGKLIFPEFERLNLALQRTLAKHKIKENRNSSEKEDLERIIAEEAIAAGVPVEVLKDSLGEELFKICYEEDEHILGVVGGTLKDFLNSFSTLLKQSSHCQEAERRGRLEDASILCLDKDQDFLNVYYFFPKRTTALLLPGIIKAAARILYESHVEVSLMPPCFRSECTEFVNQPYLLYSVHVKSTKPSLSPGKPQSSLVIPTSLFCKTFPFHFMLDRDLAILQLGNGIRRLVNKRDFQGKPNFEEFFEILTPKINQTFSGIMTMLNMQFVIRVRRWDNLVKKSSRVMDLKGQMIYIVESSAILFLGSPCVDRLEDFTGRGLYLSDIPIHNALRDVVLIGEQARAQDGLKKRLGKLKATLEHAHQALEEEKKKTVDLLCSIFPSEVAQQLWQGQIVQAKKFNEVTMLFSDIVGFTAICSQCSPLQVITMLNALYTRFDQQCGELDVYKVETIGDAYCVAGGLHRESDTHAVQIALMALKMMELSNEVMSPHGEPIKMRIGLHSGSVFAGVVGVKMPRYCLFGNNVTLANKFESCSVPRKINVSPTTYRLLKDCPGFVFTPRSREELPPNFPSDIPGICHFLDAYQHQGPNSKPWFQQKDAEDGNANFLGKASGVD
Outline: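 Rat recombinant guanylate cyclase reporter cell line measures cellular activity. Value reported as MEC (minimal effective concentration), sometimes averaged over individual determinations.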

SMILES	MEC [µM]
Cc1cc(OCc2c(F)cccc2F)c2nc(C)c(C(=O)NCC(C)(N)COCc3ccccc3)n2c1 (racemic) [Example 265, rac-N-[2-amino-3-(benzyloxy)-2-methylpropyl]-8-[(2,6-difluorobenzyl)oxy]-2,6-dimethylimidazo[1,2-a]pyridine-3-carboxamide]	0.30
CCCC(C)(N)CNC(=O)c1c(C)nc2c(OC(C)c3c(F)cccc3F)cc(C)cn12 (stereo not drawn) [Example 257, N-(2-Amino-2-methylpentyl)-8-[1-(2,6-difluorophenyl)ethoxy]-2,6-dimethylimidazo[1,2-a]-pyridine-3-carboxamide]	1.00
Cc1nc2c(OCc3c(F)cccc3F)cccn2c1C(=O)NC(CN)c1ccccc1 (single isomer, unassigned; enantiomer b) [Example 18, ent-N-(2-Amino-1-phenylethyl)-8-[(2,6-difluorobenzyl)oxy]-2-methylimidazo[1,2-a]pyridine-3-carboxamide (Enantiomer B)]	0.55

Next, values leading:

MEC [µM]	SMILES
1.00	Cc1cc(OCc2c(F)cccc2F)c2nc(C)c(C(=O)NC(C#N)CN)n2c1 (racemic) [Example 416, rac-N-(2-amino-1-cyanoethyl)-8-[(2,6-difluorobenzyl)oxy]-2,6-dimethylimidazo[1,2-a]pyridine-3-carboxamide]
0.30	Cc1cc(OCc2c(F)cccc2F)c2nc(C)c(C(=O)NC(C)(C)CN)n2c1 [Example 26, N-(1-amino-2-methylpropan-2-yl)-8-[(2,6-difluorobenzyl)oxy]-2,6-dimethylimidazo [1,2-a]-pyridine-3-carboxamide]
3.00	Cc1cc(OCc2c(F)cccc2F)c2nc(C)c(C(=O)NC3CCC3N)n2c1 (single isomer, unassigned; enantiomer a) [Example 328, ent-N-(2-aminocyclobutyl)-8-[(2,6-difluorobenzyl)oxy]-2,6-dimethylimidazo[1,2-a]pyridine-3-carboxamide (Enantiomer A)]
